In BindingDB's records for PubMed 37257213 (Birla Institute of Technology and Science Pilani):

Biological target: Trypanothione reductase (UniProt P39050)
Experiment: Inhibition of Leishmania donovani Trypanothione reductase

Trypanothione reductase, sequence (P39050 whole entry): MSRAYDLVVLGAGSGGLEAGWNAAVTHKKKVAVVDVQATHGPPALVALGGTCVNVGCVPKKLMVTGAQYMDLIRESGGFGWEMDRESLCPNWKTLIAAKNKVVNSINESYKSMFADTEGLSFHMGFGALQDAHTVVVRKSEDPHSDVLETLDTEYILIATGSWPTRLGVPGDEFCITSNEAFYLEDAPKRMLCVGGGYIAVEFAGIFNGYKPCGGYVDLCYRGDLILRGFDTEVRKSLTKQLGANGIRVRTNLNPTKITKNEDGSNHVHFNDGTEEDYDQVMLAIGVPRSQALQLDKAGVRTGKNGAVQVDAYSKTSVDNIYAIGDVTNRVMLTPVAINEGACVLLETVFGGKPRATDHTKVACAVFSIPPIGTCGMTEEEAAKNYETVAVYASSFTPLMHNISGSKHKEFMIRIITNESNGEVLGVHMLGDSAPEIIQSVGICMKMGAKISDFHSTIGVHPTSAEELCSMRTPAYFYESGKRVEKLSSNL

`CN(C)c1ncnc2c1C1(CCCC1)Cc1ccccc1-2` [Name not given] showed an IC50 of 91 µM.
